Assays:
[1] = target: T1, human EAAT3 (Homo sapiens, UniProt P43005); experiment: FLIPR Membrane Potential (FMP) assay; assay type: cell-based; details: HEK-293 cells stably expressing human EAAT3; L-glutamate as agonist at 80% of maximum response; antagonist applied 15 min before; Kb by Cheng-Prusoff from IC50
T1 construct: expressed in transfected cells
T1 sequence (P43005 1-524): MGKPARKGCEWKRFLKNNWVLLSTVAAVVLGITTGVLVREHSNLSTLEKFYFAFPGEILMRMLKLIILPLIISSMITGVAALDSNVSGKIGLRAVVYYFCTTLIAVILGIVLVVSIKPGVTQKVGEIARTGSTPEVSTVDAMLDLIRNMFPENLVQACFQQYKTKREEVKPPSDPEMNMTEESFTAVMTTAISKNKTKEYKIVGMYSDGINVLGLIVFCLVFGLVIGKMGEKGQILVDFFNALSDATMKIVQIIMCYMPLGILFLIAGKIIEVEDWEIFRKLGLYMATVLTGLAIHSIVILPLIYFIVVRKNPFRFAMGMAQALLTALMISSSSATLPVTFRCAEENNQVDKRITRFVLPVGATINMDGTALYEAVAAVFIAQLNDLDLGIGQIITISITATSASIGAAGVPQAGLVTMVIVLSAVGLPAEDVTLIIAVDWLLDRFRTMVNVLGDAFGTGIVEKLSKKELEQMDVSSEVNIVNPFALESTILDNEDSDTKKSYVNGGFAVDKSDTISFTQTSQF
Experimental: The FLIPR Membrane Potential (FMP) Assay
HEK-293 cells stably expressing human EAAT3 were seeded at 55 000 cells/well in growth medium (DMEM glutamate free (Invitrogen 11960-044), 1% Pen Strep (10 ml/l GIBCO BRL N^o 15140-023), 10% FCS non dialysed heat inactivated, 5 mg/l puromycin) in poly-D-lysine treated 96-well black microtiter plates with clear-bottom. After 24 h, the growth medium was removed and 100 μl/well of Krebs buffer (140 mM NaCl, 4.7 mM KCl, 2.5 mM CaCl2, 1.2 mM MgCl2, 11 mM HEPES, 10 mM D-glucose, pH=7.4) added. The cells were then loaded by adding 100 μl/well FMP assay dye (FLIPR Membrane Potential assay reagent, Molecular Devices). The 96-well plates were then incubated at 37° C. for 1 h. The depolarization of the cells will cause more dye to enter in the cells, where it will bind to intracellular proteins and lipids and cause an increase in the fluorescence signal. Antagonist potency at human EAAT3 was determined by using L-glutamate as agonist at a concentration which gives 80% of the maximum response. The antagonists were applied 15 min before the application of the agonist L-glutamate. The assays were performed at room temperature and measurements done by using a Fluorometric Imaging Plate Reader (FLIPR, Molecular Devices) and filter #2. Responses were measured as peak increase in fluorescence minus basal (i.e. fluorescence without addition of L-glutamate). Kb was determined using the Cheng-Prusoff equation Kb=IC50/[1+(A/EC50)], where IC50 is the concentration of the antagonist producing 50% inhibition, A is the concentration of the agonist against which the IC50 is being determined ([…]) and EC50 is the concentration of the agonist producing […].

Row | Structure (SMILES) | Kb [1] [µM] | melting point [°C]
1 | CC(C)n1nccc1-c1cc(C(=O)NC(C)(C)C)cc(-c2ccc(F)cc2)c1 [Example 6, N-tert-Butyl-3-(4-fluorophenyl)-5-(2-propan-2-yl-pyrazol-3-yl)-benzamide] | 0.095 | 161
2 | CC(C)(C)NC(=O)c1cc(-c2ccc(C(F)(F)F)cc2)cc(-c2ccnn2CC2CC2)c1 [Example 44, N-tert-Butyl-3-[2-(cyclopropylmethyl)-pyrazol-3-yl]-5-[4-(trifluoromethyl)-phenyl]-benzamide] | 0.4 | 69
3 | CC(C)(C)NC(=O)c1cc(-c2ccc(F)cc2)cc(-c2ccnn2CC2CC2)c1 [Example 46, N-tert-Butyl-3-[2-(cyclopropylmethyl)-pyrazol-3-yl]-5-(4-fluorophenyl)-benzamide] | 0.28 | 188
4 | CC(C)n1nccc1-c1cc(C(=O)NC(C)(C)C)cc(-c2ccc(C#N)cc2)c1 [Example 17, N-tert-Butyl-3-(4-cyano-phenyl)-5-(2-propan-2-yl-pyrazol-3-yl)-benzamide] | 0.33 | 94
5 | CC(C)(C)NC(=O)c1cc(-c2ccc(Cl)c(F)c2)cc(-c2ccnn2C(C)(C)C)c1 [Example 33, N-tert-Butyl-3-(2-tert-butyl-pyrazol-3-yl)-5-(4-chloro-3-fluoro-phenyl)-benzamide] | 0.29 | 225
6 | CC(C)(C)NC(=O)c1cc(-c2ccc(Cl)cc2)cc(-c2ccnn2CC2CC2)c1 [Example 25, N-tert-Butyl-3-(4-chlorophenyl)-5-[2-(cyclopropyl-methyl)-pyrazol-3-yl]-benzamide] | 0.25 | 159
7 | CC(C)(C)n1nccc1-c1cc(C(=O)NC(C)(C)C(F)(F)F)cc(-c2ccc(Cl)cc2)c1 [Example 42, 3-(2-tert-Butylpyrazol-3-yl)-5-(4-chlorophenyl)-N-(1,1,1-trifluoro-2-methyl-propan-2-yl)-benzamide] | 0.89 | 81
8 | CC(C)(C#N)NC(=O)c1cc(-c2ccc(Cl)cc2)cc(-c2ccnn2C(C)(C)C)c1 [Example 22, 3-(2-tert-Butylpyrazol-3-yl)-5-(4-chlorophenyl)-N-(2-cyanopropan-2-yl)-benzamide] | 0.37 | 119
9 | CC(C)n1nccc1-c1cc(C(=O)NC(C)(C)C)cc(-c2ccc(F)c(F)c2)c1 [Example 8, N-tert-Butyl-3-(3,4-difluorophenyl)-5-(2-propan-2-yl-pyrazol-3-yl)-benzamide] | 0.39 | 82
10 | CC(C)(NC(=O)c1cc(-c2ccc(Cl)cc2)cc(-c2ccnn2C(C)(C)C)c1)C1CC1 [Example 35, 3-(2-tert-Butyl-pyrazol-3-yl)-5-(4-chlorophenyl)-N-(2-cyclopropyl-propan-2-yl)-benzamide] | 0.92 | 166
11 | Cc1ccc(-c2cc(C(=O)NC(C)(C)C)cc(-c3ccnn3C(C)C)c2)cc1F [Example 20, N-tert-Butyl-3-(3-fluoro-4-methyl-phenyl)-5-(2-propan-2-yl-pyrazol-3-yl)-benzamide] | 0.36 | 81
12 | CC(C)(C)NC(=O)c1cc(-c2ccc(F)c(Cl)c2)cc(-c2ccnn2C(C)(C)C)c1 [Example 32, N-tert-Butyl-3-(2-tert-butyl-pyrazol-3-yl)-5-(3-chloro-4-fluoro-phenyl)-benzamide] | 0.41 | 175
13 | CC(C)(C)NC(=O)c1cc(-c2ccc(F)cc2)cc(-c2ccnn2C2CC2)c1 [Example 23, N-tert-Butyl-3-(2-cyclopropyl-pyrazol-3-yl)-5-(4-fluorophenyl)-benzamide] | 0.11 | 66
14 | CC(C)(C)NC(=O)c1cc(-c2ccc(Cl)cc2)cc(-c2ccnn2C(C)(C)C)c1 [Example 4, N-tert-Butyl-3-(2-tert-butyl-pyrazol-3-yl)-5-(4-chlorophenyl)-benzamide] | 0.32 | 209
15 | CC(C)(C)NC(=O)c1cc(-c2ccc(C(F)(F)F)cc2)cc(-c2ccnn2C(C)(C)C)c1 [Example 3, N-tert-Butyl-3-(2-tert-butyl-pyrazol-3-yl)-5-[4-(trifluoromethyl)-phenyl]-benzamide] | 0.28 | 205
16 | CCn1nccc1-c1cc(C(=O)NC(C)(C)C)cc(-c2ccc(Cl)cc2)c1 [Example 24, N-tert-Butyl-3-(4-chlorophenyl)-5-(2-ethyl-pyrazol-3-yl)-benzamide] | 0.17 | 68
17 | COc1ccc(-c2cc(C(=O)NC(C)(C)C)cc(-c3ccnn3C(C)(C)C)c2)cc1 [Example 31, N-tert-Butyl-3-(2-tert-butyl-pyrazol-3-yl)-5-(4-methoxy-phenyl)-benzamide] | 0.25 | 173
18 | CC(C)n1nccc1-c1cc(C(=O)NC(C)(C)C2CC2)cc(-c2ccc(Cl)cc2)c1 [Example 26, 3-(4-Chlorophenyl)-N-(2-cyclopropyl-propan-2-yl)-5-(2-propan-2-yl-pyrazol-3-yl)-benzamide] | 1.52 | 169
19 | CC(C)c1ccc(-c2cc(C(=O)NC(C)(C)C)cc(-c3ccnn3C(C)(C)C)c2)cc1 [Example 34, N-tert-Butyl-3-(2-tert-butyl-pyrazol-3-yl)-5-(4-propan-2-yl-phenyl)-benzamide] | 0.6 | 209.5
20 | CC(C)n1nccc1-c1cc(C(=O)NC(C)(C)C)cc(-c2ccc(Cl)cc2)c1 [Example 5, N-tert-Butyl-3-(4-chlorophenyl)-5-(2-propan-2-yl-pyrazol-3-yl)-benzamide] | 0.17 | 84
21 | CC(C)n1nccc1-c1cc(C(=O)NC(C)(C)C)cc(-c2ccc(C3CC3)cc2)c1 [Example 14, N-tert-Butyl-3-(4-cyclopropyl-phenyl)-5-(2-propan-2-yl-pyrazol-3-yl)-benzamide] | 0.88 | 83
22 | Cc1ccc(-c2cc(C(=O)NC(C)(C)C)cc(-c3ccnn3C(C)C)c2)cc1 [Example 9, N-tert-Butyl-3-(4-methylphenyl)-5-(2-propan-2-yl-pyrazol-3-yl)-benzamide] | 0.26 | 163
23 | CC(C)(C)NC(=O)c1cc(-c2ccccc2)cc(-c2ccnn2C(C)(C)C)c1 [Example 28, N-tert-Butyl-3-(2-tert-butyl-pyrazol-3-yl)-5-phenyl-benzamide] | 0.47 | 199.5
24 | CC(C)(C)NC(=O)c1cc(-c2ccc(Cl)cc2)cc(-c2ccnn2C2CC2)c1 [Example 45, N-tert-Butyl-3-(4-chlorophenyl)-5-(2-cyclopropyl-pyrazol-3-yl)-benzamide] | 0.26 | 72
25 | Cc1ccc(-c2cc(C(=O)NC(C)(C)C)cc(-c3ccnn3C(C)(C)C)c2)cc1 [Example 30, N-tert-Butyl-3-(2-tert-butyl-pyrazol-3-yl)-5-(4-methyl-phenyl)-benzamide] | 0.37 | 193
26 | CC(C)(CO)NC(=O)c1cc(-c2ccc(Cl)cc2)cc(-c2ccnn2C(C)(C)C)c1 [Example 41, 3-(2-tert-Butyl-pyrazol-3-yl)-5-(4-chlorophenyl)-N-(1-hydroxy-2-methylpropan-2-yl)-benzamide] | 0.26 | 83
